Laboratory results published in patent US20100016232A1, “Treatment Of Inflammatory Diseases With Mammal Beta Defensins” (Novozymes A/S, priority 2008, published 2010).
Marks after values point to notes of the source that are not given here. Where no end group is shown, it is not given here.

How the values were obtained:
PBMC = PBMC viability, Alamar Blue; type: cell-based, human
Experimental: (§1) Peripheral blood was drawn from healthy volunteers (with approval from the relevant ethical committee in Denmark). Heparinized blood was diluted 1/1 v/v with RPMI and were subjected to Ficoll density centrifugation within 2 h of drawing. Plasma was collected from the top from individual donors and was kept on ice until it was used at 2% in the culture medium (autologous culture medium). Isolated PBMC were resuspended in autologous culture medium and seeded in 96-well culture plates with 255.000 cells per well in a total of 200 μl. […] The concentrations used for stimulation were optimized on 3 different donors in initial experiments, for LPS two different concentrations were used to be sure to be on a cytokine level that is possible to modulate. In some experiments PBMC were treated with Dexamethason and Indomethacin alone and together with LPS or LTA as a control on downregulation of inflammatory cytokines. The supernatants were collected after incubation at 37° C. for 24 hours, and stored at −80° C. until cytokine measurement. Viability was measured by Alamar Blue (Biosource, DALL 1100) in all experiments and in some cases also by MTS (Promega) according to manufacturer's instruction and was in some experiments also judged by counting of the cells by a Nucleocounter.

[1] = tested on: TNF production from human peripheral blood mononuclear cells (PBMC); test: TNF production from human PBMC, Cytometric Bead Array; type: cell-based
Experimental: as §1
(§2) Cytokine production in supernatants was measured by flow cytometry with a human inflammation cytometric bead array (CBA) according to manufacturer's instructions (BD) on a FACSarray flow cytometer. The following cytokines were measured: IL-8, IL-1β, IL-10, TNF, IL-12 p70, IL-6. In some experiments, cytokines were measured by ELISA kits from R&D systems (IL-10, TNF-α, IL-1β) according to the manufacturer' instruction.

[2] = tested on: TNF-alfa secretion from PBMC; test: TNF-alfa secretion from PBMC, ELISA; type: cell-based, human
Experimental: as §1, §2
In Tables 6, 7 and 8, supernatants from another donor were analysed for cytokines by ELISA instead of by a cytometric bead array by flowcytometry and here the same were observed, although the sensitivity of the assay is lower and the detection limit much higher and therefore the effects were not as significant.

[3] = tested on: DSS-induced colitis in the mouse; test: 10-day DSS-induced colitis, colon histological score (Example 6); type: in vivo
Experimental: Two sections (proximal and distal) of colon were taken from each animal and preserved in neutral buffered formalin for subsequent histological analysis (haematoxylin and eosin staining) according to the following scoring system:
Example 6 was carried out essentially as described in Example 5. The differences are indicated below.
Animals were divided into 9 experimental groups.
Two sections (proximal and distal) of colon were taken from each animal, processed for histological analysis (haematoxylin and eosin staining), and scored by a blind observer according to the scoring system described above.

[4] = LPS 0.6 ng/ml, test compound 1 μg/ml, Table 16
[5] = LPS 0.6 ng/ml, test compound 10 μg/ml, Table 16
[6] = LPS 0.6 ng/ml, test compound 40 μg/ml, Table 16
[7] = LPS 20 ng/ml, test compound 1 μg/ml, Table 16
[8] = LPS 20 ng/ml, test compound 10 μg/ml, Table 16
[9] = LPS 20 ng/ml, test compound 40 μg/ml, Table 16
[10] = Group F, 0.1 mg/kg twice daily i.v. + s.c.
[11] = Group G, 0.1 mg/kg i.v. every 2. day

hBD2: human beta defensin 2, SEQ ID NO:2; produced recombinantly in E. coli (Example 1); hBD2 of Tables 16-18 was prepared by chemical synthesis (GIGDPVTCLKSGAICHPVFCPRRYKQIGTCGLPGTKCCKKP; ends and bridges not checked; cysteine pairing not given here; listed as Homo sapiens)
Viability, Alamar Blue (PBMC; LPS 0.6 ng/ml, hBD2 1 μg/ml): 4230588 RFU | Viability, Alamar Blue (PBMC; LPS 0.6 ng/ml, hBD2 10 μg/ml): 4664362 RFU | Viability, Alamar Blue (PBMC; LPS 0.6 ng/ml, hBD2 100 μg/ml): 4831188 RFU | Viability, Alamar Blue (PBMC; LPS 20 ng/ml, hBD2 1 μg/ml): 4561739 RFU | Viability, Alamar Blue (PBMC; LPS 20 ng/ml, hBD2 10 μg/ml): 4623818 RFU | Viability, Alamar Blue (PBMC; LPS 20 ng/ml, hBD2 100 μg/ml): 4765256 RFU | Viability, Alamar Blue (PBMC; LTA 1.25 μg/ml, hBD2 1 μg/ml): 4148294 RFU | Viability, Alamar Blue (PBMC; LTA 1.25 μg/ml, hBD2 10 μg/ml): 4677870 RFU | Viability, Alamar Blue (PBMC; LTA 1.25 μg/ml, hBD2 100 μg/ml): 4664185 RFU | Viability, Alamar Blue (PBMC; Medium, hBD2 1 μg/ml): 4064143 RFU | Viability, Alamar Blue (PBMC; Medium, hBD2 10 μg/ml): 3683369 RFU | Viability, Alamar Blue (PBMC; Medium, hBD2 100 μg/ml): 3950053 RFU | cytotoxic effect on the cells (PBMC; human PBMC, MTS and Alamar Blue, Tables 4 and 5): no cytotoxic effect | TNF ([1]; LPS 0.6 ng/ml, hBD2 1 μg/ml, Table 1): 944.8 pg/mL | TNF ([1]; LPS 0.6 ng/ml, hBD2 1 μg/ml, Table 11): 170 pg/mL | TNF ([1]; LPS 0.6 ng/ml, hBD2 10 μg/ml, Table 1): 1076.4 pg/mL | TNF ([1]; LPS 0.6 ng/ml, hBD2 10 μg/ml, Table 11): 200 pg/mL | TNF ([1]; LPS 0.6 ng/ml, hBD2 100 μg/ml, Table 1): 634.2 pg/mL | TNF ([1]; LPS 0.6 ng/ml, hBD2 100 μg/ml, Table 11): 0 pg/mL | TNF ([1]; LPS 0.6 ng/ml, hBD2 1000 μg/ml, Table 11): 3 pg/mL | TNF [1, 4]: 242 pg/mL | TNF % of control [1, 4]: 33% | TNF [1, 5]: 304 pg/mL | TNF % of control [1, 5]: 42% | TNF [1, 6]: 176 pg/mL | TNF % of control [1, 6]: 24% | TNF ([1]; LPS 20 ng/ml, hBD2 1 μg/ml, Table 1): 1526.9 pg/mL | TNF ([1]; LPS 20 ng/ml, hBD2 1 μg/ml, Table 11): 6240 pg/mL | TNF ([1]; LPS 20 ng/ml, hBD2 10 μg/ml, Table 1): 1306.6 pg/mL | TNF ([1]; LPS 20 ng/ml, hBD2 10 μg/ml, Table 11): 350 pg/mL | TNF ([1]; LPS 20 ng/ml, hBD2 100 μg/ml, Table 1): 1733.9 pg/mL | TNF ([1]; LPS 20 ng/ml, hBD2 100 μg/ml, Table 11): 38 pg/mL | TNF ([1]; LPS 20 ng/ml, hBD2 1000 μg/ml, Table 11): 0 pg/mL | TNF [1, 7]: 411 pg/mL | TNF % of control [1, 7]: 19% | TNF [1, 8]: 132 pg/mL | TNF % of control [1, 8]: 6% | TNF [1, 9]: 52 pg/mL | TNF % of control [1, 9]: 2% | TNF ([1]; LPS 20 ng/ml, treatment 1 μg/ml, Table 21): 633 pg/mL | TNF ([1]; LPS 20 ng/ml, treatment 10 μg/ml, Table 21): 359 pg/mL | TNF ([1]; LPS 20 ng/ml, treatment 100 μg/ml, Table 21): 342 pg/mL | TNF ([1]; LTA 1.25 μg/ml, hBD2 1 μg/ml, Table 1): 711.5 pg/mL | TNF ([1]; LTA 1.25 μg/ml, hBD2 1 μg/ml, Table 11): 3900 pg/mL | TNF ([1]; LTA 1.25 μg/ml, hBD2 10 μg/ml, Table 1): 494.7 pg/mL | TNF ([1]; LTA 1.25 μg/ml, hBD2 10 μg/ml, Table 11): 2330 pg/mL | TNF ([1]; LTA 1.25 μg/ml, hBD2 100 μg/ml, Table 1): 375.2 pg/mL | TNF ([1]; LTA 1.25 μg/ml, hBD2 100 μg/ml, Table 11): 1150 pg/mL | TNF ([1]; LTA 1.25 μg/ml, hBD2 1000 μg/ml, Table 11): 110 pg/mL | TNF ([1]; Medium, hBD2 1 μg/ml, Table 1): 4.2 pg/mL | TNF ([1]; Medium, hBD2 1 μg/ml, Table 9): 3.4 pg/mL | TNF ([1]; Medium, hBD2 1 μg/ml, Table 11): 0 pg/mL | TNF ([1]; Medium, hBD2 10 μg/ml, Table 1): 2.6 pg/mL | TNF ([1]; Medium, hBD2 10 μg/ml, Table 9): 3.7 pg/mL | TNF ([1]; Medium, hBD2 10 μg/ml, Table 11): 0 pg/mL | TNF ([1]; Medium, hBD2 100 μg/ml, Table 1): 2.9 pg/mL | TNF ([1]; Medium, hBD2 100 μg/ml, Table 9): 3.6 pg/mL | TNF ([1]; Medium, hBD2 100 μg/ml, Table 11): 0 pg/mL | TNF ([1]; Medium, hBD2 1000 μg/ml, Table 11): 0 pg/mL | TNF ([1]; Medium, test compound 1 μg/ml, Table 16): 0 pg/mL | TNF ([1]; Medium, test compound 10 μg/ml, Table 16): 0 pg/mL | TNF ([1]; Medium, test compound 40 μg/ml, Table 16): 0 pg/mL | TNF ([1]; Medium, treatment 1 μg/ml, Table 21): 3 pg/mL | TNF ([1]; Medium, treatment 10 μg/ml, Table 21): 2 pg/mL | TNF ([1]; Medium, treatment 100 μg/ml, Table 21): 2 pg/mL | TNF ([1]; PBMC stimulated with Pam3CSK4 (TLR2-TLR1 ligand), results not shown): able to downregulate TNF | TNF ([1]; PGN 40 μg/ml, hBD2 1 μg/ml, Table 9): 809.9 pg/mL | TNF ([1]; PGN 40 μg/ml, hBD2 10 μg/ml, Table 9): 362.0 pg/mL | TNF ([1]; PGN 40 μg/ml, hBD2 100 μg/ml, Table 9): 274.9 pg/mL | TNF-α ([2]; LPS 0.6 ng/ml, hBD2 1 μg/ml): 0.70 ng/mL | TNF-α ([2]; LPS 0.6 ng/ml, hBD2 10 μg/ml): 0.59 ng/mL | TNF-α ([2]; LPS 0.6 ng/ml, hBD2 100 μg/ml): 0.41 ng/mL | TNF-α ([2]; LPS 20 ng/ml, hBD2 1 μg/ml): 1.18 ng/mL | TNF-α ([2]; LPS 20 ng/ml, hBD2 10 μg/ml): 0.49 ng/mL | TNF-α ([2]; LPS 20 ng/ml, hBD2 100 μg/ml): 0.53 ng/mL | TNF-α ([2]; LTA 1.25 μg/ml, hBD2 1 μg/ml): 0.65 ng/mL | TNF-α ([2]; LTA 1.25 μg/ml, hBD2 10 μg/ml): 0.27 ng/mL | TNF-α ([2]; LTA 1.25 μg/ml, hBD2 100 μg/ml): 0.21 ng/mL | Histology Score Distal Colon, mean ([3]; Group B, 1 mg/kg i.v.): 3.56 | Histology Score Proximal Colon, mean ([3]; Group B, 1 mg/kg i.v.): 1.78 | Histology Score Distal Colon, mean ([3]; Group C, 0.1 mg/kg i.v.): 3.14* | Histology Score Proximal Colon, mean ([3]; Group C, 0.1 mg/kg i.v.): 1.71 | Histology Score Distal Colon, mean ([3]; Group D, 0.01 mg/kg i.v.): 3.10** | Histology Score Proximal Colon, mean ([3]; Group D, 0.01 mg/kg i.v.): 1.70 | Histology Score Distal Colon, mean ([3]; Group E, 0.001 mg/kg i.v.): 3.56 | Histology Score Proximal Colon, mean ([3]; Group E, 0.001 mg/kg i.v.): 1.44 | Histology Score Distal Colon, mean [3, 10]: 2.90*** | Histology Score Proximal Colon, mean [3, 10]: 1.30* | Histology Score Distal Colon, mean [3, 11]: 3.56 | Histology Score Proximal Colon, mean [3, 11]: 1.56
